How the values were obtained:
Rat [1] = assay: concentration in liver after dosing; settings: 6.667 h; dosed: Thiodiglycolic Acid; 20 mg/kg; iv; Female; Harlan Sprague Dawley
Rat [2] = assay: concentration in heart after dosing; settings: dosed: Thiodiglycolic Acid, 20 mg/kg, iv
Rat [3] = assay: concentration in liver after dosing; settings: dosed: Thiodiglycolic Acid, 20 mg/kg, iv
Rat [4] = assay: concentration in liver after dosing; settings: 10 h; dosed: Thiodiglycolic Acid; 20 mg/kg; iv; Male; F344
Rat [5] = assay: concentration in liver after dosing; settings: 20 min; dosed: Thiodiglycolic Acid; 20 mg/kg; iv; Female; F344
Rat [6] = assay: concentration in plasma after dosing; settings: dosed: Thiodiglycolic Acid, 20 mg/kg, iv
Rat [7] = assay: concentration in thymus after dosing; settings: dosed: Thiodiglycolic Acid, 20 mg/kg, iv

O=C(O)CSCC(=O)O [Thiodiglycolic Acid]
Settings	concentration in liver [ng/g]
Rat [1]	7630
Rat [4]	630
Rat [5]	174000

Settings	concentration in heart, Rat [2] [ng/g]	concentration in liver, Rat [3] [ng/g]	concentration in plasma, Rat [6] [ng/mL]	concentration in thymus, Rat [7] [ng/g]
1 h, Female, Harlan Sprague Dawley	1670	71500	8500	2560
1 h, Male, Harlan Sprague Dawley	1760	107000	1340	2750
2 h, Female, Harlan Sprague Dawley	1120	21800	1220	1650
2 h, Male, Harlan Sprague Dawley	1340	108000	751	1940
3 h, Female, Harlan Sprague Dawley	562	9460	520	1060
3 h, Male, Harlan Sprague Dawley	1040	50900	553	1370
4 h, Female, Harlan Sprague Dawley	414	2680	228	708
4 h, Male, Harlan Sprague Dawley	476	45400	332	939
5.333 h, Female, Harlan Sprague Dawley	232	2410	302	399
5.333 h, Male, Harlan Sprague Dawley	388	29400	247	715
6.667 h, Female, Harlan Sprague Dawley	238	2220	–	236
8 h, Female, Harlan Sprague Dawley	328	246	200	487
10 h, Female, Harlan Sprague Dawley	–	7570	–	215
10 h, Male, F344	362	4770	215	358
10 min, Female, Harlan Sprague Dawley	8480	75000	37500	8190
10 min, Male, F344	6870	148000	25600	10000
20 min, Female, F344	4000	198000	6700	3960
20 min, Female, Harlan Sprague Dawley	4770	11000	9230	4460
40 min, Female, Harlan Sprague Dawley	2650	49400	3520	3000
40 min, Male, Harlan Sprague Dawley	2660	190000	1820	2890

Source: EPA's CvTdb concentration-time database
